Test results reported in patent US7105310B1, “Detection of biomolecules by sensitizer-linked substrates” (California Institute of Technology, priority 2000, dated 2006).
Where “and” joins values, the source holds several entries; their conditions need not be identical. Equal entries are not always repeated.

How the values were obtained:
[1] = target: T1, cytochrome P450cam (Pseudomonas putida, UniProt P00183); settings: for rate of hydroxylation (NADH consumption): NADH/PdR/Pd/P450, 1 μM P450, 20 °C
Description: Two cycles of acetonitrile (5 mL) addition, decanting, and rotary evaporation were performed to separate the buffer salts from the ruthenated species. The ruthenium concentration was quantified by UV-vis (ε456=14,500 M^−1 cm^−1).
Each solution was injected three different times, with intermediary blank runs of pure acetonitrile. Relative peak intensities were determined using analysis software, which deconvolved the spectra to assign one singly charged peak to each compound. […] This information was crucial in quantifying hydroxylated product yields relative to starting material in the analysis of subsequent turnover experiments.
The oxygen electrode was calibrated at 20° C. (linear response with [O2], 0–100% O2), and connected to a LeCroy oscilloscope interfaced to a PC using freely available LeCroy software (LeCroy, Chestnut Ridge, N.Y.). The O2 electrode (3 mm diameter with Teflon casing) was pushed through a septum, which formed an airtight seal with the mouth of a standard 1 cm pathlength cuvette. […] All UV-vis experiments were conducted with stirred samples at 20° C. […] Experiments were initiated upon addition of 200 μM NADH, and absorbance at 340 nm was measured simultaneously with O2 consumption.
The consumption of NADH was monitored at 340 nm by UV-vis spectroscopy and O2 consumption monitored with the microelectrode. Once all of the NADH was consumed, a known amount of 3-endo-bromo-camphor was added, and the mixture was extract three times with an equal volume of methylene chloride. The organic extract was concentrated by evaporation and analyzed by GC.

[2] = target: T2, cytochrome P450cam (Pseudomonas putida, UniProt P00183, C335A); experiment: biochemical
Description: A Hewlett Packard 8452A spectrophotometer was used to collect UV-vis data. Buffer conditions were 50 mM potassium phosphate, 100 mM potassium chloride, pH 7.4 for all protein solutions (˜5 μM P450). […] Thus, affinities were determined by the ability of these complexes to inhibit the low- to high-spin transition produced by camphor. […] The concentration of ethanol never exceeded 1% of the total volume. […] Absorbance changes were recorded at 392 and 416 nm. […] By definition, KD=Kcam/KI, where Kcam is the dissociaton constant of camphor (in the absence of Ru-substrate), and KI is the equilibrium constant between camphor- and ruthenium-bound P450, spectroscopically determined by measuring the dissociation constant of camphor at multiple Ru concentrations. Luminescence experiments measure KD directly.

[3] = target: T1, cytochrome P450cam; settings: cited from earlier work
[4] = target: Asp251Asn (Pseudomonas putida, UniProt P00183, D252N); settings: decreases above 15° C.; cited from earlier work
[5] = target: T3, P450 (Pseudomonas putida, UniProt P00183); settings: cited from earlier work
T3 construct: made in house; host or cells: E. coli
T3 sequence (P00183 1-415): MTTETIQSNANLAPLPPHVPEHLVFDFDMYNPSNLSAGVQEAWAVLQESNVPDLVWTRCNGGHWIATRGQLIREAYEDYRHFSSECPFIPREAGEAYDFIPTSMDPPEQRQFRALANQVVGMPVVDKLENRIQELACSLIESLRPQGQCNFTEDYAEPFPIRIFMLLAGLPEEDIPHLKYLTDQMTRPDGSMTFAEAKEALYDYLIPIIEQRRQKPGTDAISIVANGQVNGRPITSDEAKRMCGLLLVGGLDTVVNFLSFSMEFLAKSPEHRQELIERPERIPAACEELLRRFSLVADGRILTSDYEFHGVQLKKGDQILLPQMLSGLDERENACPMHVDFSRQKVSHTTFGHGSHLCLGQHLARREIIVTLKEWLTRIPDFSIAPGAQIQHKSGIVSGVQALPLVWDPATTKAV

[6] = target: T4, P450:Ru complex (Pseudomonas putida, UniProt P00183); experiment: Camphor titration into stoichiometric P450:Ru—C10 (UV-vis); format: binding
T4 construct: made in house
T4 sequence (P00183 2-415 limits assumed): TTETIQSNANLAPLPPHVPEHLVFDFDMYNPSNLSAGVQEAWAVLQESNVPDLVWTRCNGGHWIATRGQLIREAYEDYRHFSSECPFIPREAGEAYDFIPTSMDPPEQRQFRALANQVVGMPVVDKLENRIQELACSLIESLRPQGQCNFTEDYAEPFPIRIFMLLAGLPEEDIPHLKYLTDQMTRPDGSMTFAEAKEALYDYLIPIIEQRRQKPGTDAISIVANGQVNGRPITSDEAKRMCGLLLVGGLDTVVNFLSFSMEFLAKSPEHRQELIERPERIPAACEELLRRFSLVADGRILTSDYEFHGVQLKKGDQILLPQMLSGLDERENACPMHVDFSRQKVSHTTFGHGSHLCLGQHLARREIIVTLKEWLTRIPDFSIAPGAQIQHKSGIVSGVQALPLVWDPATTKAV

[7] = system: nNOS; settings: cited from earlier work
[8] = system: iNOS; settings: cited from earlier work
[9] = system: eNOS; settings: cited from earlier work
[10] = system: six heme proteins (yeast cytochrome c, horse skeletal muscle myoglobin, bovine lipase cytochrome b5, bovine liver catalase, recombinant yeast cytochrome c …); experiment: Emission decay of Ru-substrate in presence of other heme proteins; settings: […] Ru—C9-Ad, 50 mM sodium phosphate pH 7; monophasic = no binding
[11] = target: T2, cytochrome P450cam; settings: untethered control complexes
[12] = target: T3, P450; experiment: Steady-state luminescence of Ru-dppa probes in acetonitrile, buffer and buffer with P450; settings: for integrated luminescence intensity with P450 as % of value in acetonitrile: buffer in the presence of P450
Description: (§1) Electrospray mass spec. data was collected on a Finnigan LCQ quadrupole ion trap mass spectrometer.
(§2) P450 was stored in small aliquots and thawed immediately before use. Samples were prepared in 50 mM Kphos buffer containing 100 mM KCl. P450 concentration was quantified using the heme soret absorption at 416.5 nm (115,000 M^−1 cm^−1). Samples were prepared in a custom quartz cuvette fitted with a Kontes Teflon stopcock. Oxygen was removed from the sample by completing at least 30 cycles of partial vacuum followed by an influx of argon.
The luminescence of compounds 1–3 was examined in acetonitrile, potassium phosphate buffer, and buffer in the presence of P450 (as described above). […] The complexes 2 and 3 show modest recoveries of luminescence, with integrated intensities that are 2.6 and 5.2% of their values in acetonitrile (FIG. 49). The luminescence from 3 is approximately 20 fold greater in the presence of P450 than in buffer alone.

[13] = target: T5, P450cam (Pseudomonas putida, UniProt P00183); experiment: Binding of [Ru(phen)2dppa]-adamantyl probes to P450; settings: Example VI
T5 construct: made in house; host or cells: E. coli
T5 sequence (P00183 1-415): T3 sequence (P00183 1-415)
Description: as §1, §2

[14] = system: NOS; settings: cited from earlier work

Molecule: NC(=O)CC1C2CC3CC(C2)CC1C3 (stereo not shown) [2-adamantylacetamide]
- yield of hydroxylated product based on NADH (product formation/NADH consumption) [1]: 47±3%
- rate of hydroxylation (NADH consumption) [1]: 90±20 μmol NADH/min/μmol P450
- spin conversion at the heme [2]: full low to high spin conversion
- conversion of heme to high-spin species on binding ([2]; ferric-aquo P450): 95%

Molecule: NC(=O)CC12CC3CC(CC(C3)C1)C2 [1-adamantylacetamide]
- rate of hydroxylation, literature value ([3]; literature): ~110 μmol NADH/min/μmol P450

Molecule: CC12CCC(CC1=O)C2(C)C (stereo not shown) [camphor]
- rate of hydroxylation (NADH consumption) [1]: ~600 μmol NADH/min/μmol P450
- association constant for camphor (In Keq), Asp251Asn [4]: ~14.2
- Kd ([5]; comparison value, read-out: KD of camphor (natural substrate)): ~1000 nM and 1600 nM
- association constant for camphor (In Keq), WT P450 ([5]; decreases below 15° C.): ~14.2
- Kd ([2]; dissociation constant of camphor (KS, Kcam), P450 alone, no Ru-substrate, 50 mM potassium phosphate, 100 mM KCl, pH 7.4, 20 °C): 3 µM and 3.1 µM
- coupling of hydroxylation reaction [3]: ~100%
- Kd [6]: 3.6 ± 0.2 µM

Molecule: CC(=N)NCc1cccc(CN)c1 [1400W]
- type of inhibition [7]: weak, reversible inhibitor
- type of inhibition [8]: irreversible inhibitor
- type of inhibition [9]: weak, reversible inhibitor

Molecule: D-Phe-D-ArgNO2—OMe
- dissociation constant [7]: micromolar
- Kd [8]: 3.6 mM
- dissociation constant [9]: micromolar

Molecule: [Ru(bpy)2(bpy-C9-Ad)]Cl2 [Ru—C9-Ad]
- effective product yield based on background oxidase activity [1]: 40%
- yield of hydroxylated product based on NADH (product formation/NADH consumption) [1]: 10%
- rate of hydroxylation (NADH consumption) [1]: 10±2 μmol NADH/min/μmol P450 and 8 μmol NADH/min/μmol P450
- emission decay profile in presence of six heme proteins [10]: monophasic

Molecule: [Cl-].[Cl-].[Ru+2].c1ccc(-c2ccccn2)nc1.c1ccc(-c2ccccn2)nc1.c1ccc(-c2ccccn2)nc1 [[Ru(bpy)3]^2+, Tris(2,2′-bipyridine)ruthenium(II) chloride]
- quenching upon addition of P450 [11]: not quenched

Molecule: Ru(phen)2dppa-gly-adm [compound 2]
- integrated luminescence intensity with P450 as % of value in acetonitrile [12]: 2.6%
- Kd [13]: 2400 nM

Molecule: N=C(NCCC[C@H](N)C(=O)O)N[N+](=O)[O-] [NMA, N^ω-nitro-arginine]
- inhibition of NOS [14]: good, but non-specific inhibitor

Molecule: Ru(phen)2dppa-C6-Ad [compound 1]
- luminescence increase over background [12]: did not show a significant increase in luminescence
- Kd [13]: 250 nM

Molecule: Ru(phen)2dppa-adm [compound 3]
- quantum yield bound to P450 ([12]; based on reported quantum yield of [Ru(phen)2dppz]2+ in aerated acetonitrile): 0.00038
- integrated luminescence intensity with P450 as % of value in acetonitrile [12]: 5.2%
- Kd [13]: 180 nM
